According to patent publication US20110306778A1, “CRYSTAL OF SPIROKETAL DERIVATIVES AND PROCESS FOR PREPARATION OF SPIROKETAL DERIVATIVES” (priority 2008, published 2011):

Legend:
[1] = Storage stability test (total amount of impurities by HPLC after storage in thermostatic chambers); assay type: physicochemical; details: for Course of the total amounts of impurities during storage: both at 25° C. and 40° C.
Method: A storage stability test was carried out for monohydrate crystal and an amorphous form of the compound of Formula (XI). The monohydrate crystal of the compound of Formula (XI) was prepared according to the procedure of Example 1, Step 7. The amorphous form of the compound of Formula (XI) was obtained by the following procedure. The monohydrate crystal of the compound (15 g) was melted by heating on hot-stage, and allowed to be cooled to room temperature in a humidity-controlled desiccator (25° C./dry). The resulting solid was grinded in mortar to give a sample used as an amorphous form. The samples were stored in thermostatic chambers at 25° C. or 40° C., and the purity each of the samples was observed after 1 month, 3 months and 6 months.
The purity was determined in the following procedure. A portion each of the samples was weighed precisely (ca. 6 mg) and dissolved in a mixture of water and methanol (1:1) to be 10 mL accurately. The resulting solutions were used as sample solutions, and a portion (10 μL) each of the sample solutions was subjected to HPLC analysis. A total amount of impurities were calculated according to the following formula.
Measurement Condition of HPLC
Device: 2695 Separations Module (manufactured by Waters), 2487 Dual k Absorbance Detector (manufactured by Waters) or 996 Photodiode Array Detector (manufactured by Waters)
Column: YMC-Pack ODS-AM AM-302-3, 4.6 mm I.D.×15 cm, particle size 3 μm (manufactured by YMC)
Mobile phase: Eluent A=methanol, Eluent B=water
Gradient operation: Eluent A: 55% (15 min), Eluent A: 55% to 100% (10 min), 100% (5 min)
Detection wavelength: 220 nm
Sample cooler temperature: 5° C.
Period for measuring peak area: 30 minutes after injection
A storage stability test was carried out for co-crystal of the compound of Formula (XI) with sodium acetate according to the procedure of Test Example 2. The co-crystal of the compound of Formula (XI) with sodium acetate was prepared according to the procedure of Example 5. The samples were stored in thermostatic chambers at 25° C. or 40° C., and the purity each of the samples was observed after 1 month and 3 months. The measurement results were compared with those for the amorphous form obtained in Test Example 2.
A storage stability test was carried out for co-crystal of the compound of Formula (XI) with potassium acetate according to the procedure of Test Example 2. The co-crystal of the compound of Formula (XI) with potassium acetate was prepared according to the procedure of Example 6. The samples were stored in thermostatic chambers at 25° C. or 40° C., and the purity each of the samples was observed after 1 month and 3 months. The measurement results were compared with those for the amorphous form obtained in Test Example 2.

SGLT2 = target: T1, SGLT2 (Homo sapiens, UniProt P31639); details: statement of Patent Document 1 (WO 2006/080421 A1); cited from earlier work
T1 sequence (P31639 1-672): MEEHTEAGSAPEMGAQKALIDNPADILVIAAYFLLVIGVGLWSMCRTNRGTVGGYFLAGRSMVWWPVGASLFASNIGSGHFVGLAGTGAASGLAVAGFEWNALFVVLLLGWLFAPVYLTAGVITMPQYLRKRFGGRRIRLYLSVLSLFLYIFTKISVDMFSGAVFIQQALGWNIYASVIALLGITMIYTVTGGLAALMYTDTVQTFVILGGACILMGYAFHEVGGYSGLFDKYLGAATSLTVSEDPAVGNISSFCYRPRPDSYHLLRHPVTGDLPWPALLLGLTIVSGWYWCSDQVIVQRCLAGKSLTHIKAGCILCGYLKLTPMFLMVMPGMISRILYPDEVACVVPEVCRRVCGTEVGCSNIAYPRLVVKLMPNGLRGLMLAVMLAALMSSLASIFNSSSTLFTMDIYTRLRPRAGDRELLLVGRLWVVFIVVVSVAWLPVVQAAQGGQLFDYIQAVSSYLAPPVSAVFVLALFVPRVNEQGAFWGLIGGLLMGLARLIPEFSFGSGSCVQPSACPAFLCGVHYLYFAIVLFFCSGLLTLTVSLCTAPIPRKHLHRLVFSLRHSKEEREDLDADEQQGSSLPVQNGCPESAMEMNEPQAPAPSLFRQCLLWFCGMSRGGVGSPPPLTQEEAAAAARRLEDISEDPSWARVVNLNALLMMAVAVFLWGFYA

Structure (SMILES)	Course of the total amounts of impurities during storage [1]	Total amount of impurities (%) ([1]; storage at 25° C., 0 month)	Total amount of impurities (%) ([1]; storage at 25° C., 3 month)	Total amount of impurities (%) ([1]; storage at 25° C., 6 month)	Total amount of impurities (%) ([1]; storage at 40° C., 0 month)	Total amount of impurities (%) ([1]; storage at 40° C., 1 month)	Total amount of impurities (%) ([1]; storage at 40° C., 3 month)	Total amount of impurities (%) ([1]; storage at 40° C., 6 month)	Inhibitory activity against SGLT2 (SGLT2)
CCc1ccc(Cc2ccc3c(c2)[C@]2(OC3)O[C@H](CO)[C@@H](O)[C@H](O)[C@H]2O)cc1 [Amorphous form, 1,1-anhydro-1-C-[5-(4-ethylphenyl)methyl-2-(hydroxymethyl)phenyl]-β-D-glucopyranose]	increased time-dependently	0.35	0.66	0.87	0.35	0.62	0.92	1.46	
CCc1ccc(Cc2ccc3c(c2)[C@]2(OC3)O[C@H](CO)[C@@H](O)[C@H](O)[C@H]2O)cc1 [Co-crystal with potassium acetate, 1,1-anhydro-1-C-[5-(4-ethylphenyl)methyl-2-(hydroxymethyl)phenyl]-β-D-glucopyranose]	maintained nearly constant for 3 months	0.08	0.08		0.08	0.08	0.08		
CCc1ccc(Cc2ccc3c(c2)[C@]2(OC3)O[C@H](CO)[C@@H](O)[C@H](O)[C@H]2O)cc1 [Co-crystal with sodium acetate, 1,1-anhydro-1-C-[5-(4-ethylphenyl)methyl-2-(hydroxymethyl)phenyl]-β-D-glucopyranose]	maintained nearly constant for 3 months	0.07	0.07		0.07	0.07	0.08		
CCc1ccc(Cc2ccc3c(c2)[C@]2(OC3)O[C@H](CO)[C@@H](O)[C@H](O)[C@H]2O)cc1 [Formula (B)]									excellent inhibitory activity
CCc1ccc(Cc2ccc3c(c2)[C@]2(OC3)O[C@H](CO)[C@@H](O)[C@H](O)[C@H]2O)cc1 [Monohydrate crystal, 1,1-anhydro-1-C-[5-(4-ethylphenyl)methyl-2-(hydroxymethyl)phenyl]-β-D-glucopyranose]	maintained nearly constant for 6 months	0.30	0.29	0.32	0.30	0.32	0.31	0.36	
